Data: patent publication US20240124444A1 (Celgene Corporation, priority 2020, published 2024)
Read-outs that look alike come from different tables or passages of the source.

Tested on: C. parvum strain UGA1
Experiment: C. parvum growth inhibition assay (Nluc luminescence in HCT-8 cells)
Format: cell-based, Cryptosporidium parvum
Details: Cryptosporidium parvum; for inhibition at 1 µM / inhibition at 10 µM: HCT-8; for inhibition at 1 µM: read-out: % inh @ 1 uM C. parvum; for inhibition at 10 µM: read-out: % inh @ 10 uM C. parvum; for EC50: HCT-8, 48 h, C. parvum growth inhibition in HCT-8 cells, 48 hours, 6 concentrations 10-0.04 μM
[1] = single point inhibition at 1 uM
[2] = single point inhibition at 10 uM
[3] = single point inhibition @ 10 uM

Row | SMILES | inhibition at 1 µM [1] | inhibition at 10 µM [2] | EC50 | also measured
1 | COC1CCC(OC(=O)Nc2cc3[nH]c(-c4ccnc(C)c4)cc3cn2)CC1 (stereo not shown) [Example 206, 4-methoxycyclohexyl 2-(2-methylpyridin-4-yl)-1H-pyrrolo[3,2-c]pyridin-6-ylcarbamate] | 0 to 33% | 67 to 100% |  | 
2 | Cc1cc(C(=O)Nc2cc3[nH]c(-c4ccncc4)cc3cn2)nn1C [Example 282, 1,5-dimethyl-N-(2-(pyridin-4-yl)-1H-pyrrolo[3,2-c]pyridin-6-yl)-1H-pyrazole-3-carboxamide] | 0 to 33% | 0 to 33% |  | 
3 | Cc1cc(-c2cc3cnc(NC(=O)NC4CC4)cc3[nH]2)ccn1 [Example 209, 1-cyclopropyl-3-(2-(2-methylpyridin-4-yl)-1H-pyrrolo[3,2-c]pyridin-6-yl)urea] | 0 to 33% | 67 to 100% |  | 
4 | Cn1cc(C(=O)Nc2cc3c(cn2)cc(-c2ccnc(NCC4CC4)n2)n3C)cn1 [Example 159, N-(2-(2-(cyclopropylmethylamino)pyrimidin-4-yl)-1-methyl-1H-pyrrolo[3,2-c]pyridin-6-yl)-1-methyl-1H-pyrazole-4-carboxamide] |  |  |  | inhibition at 1 µM (single point inhibition @ 1 uM): 0 to 33%; inhibition at 10 µM [3]: 67 to 100%
5 | CO[C@H]1CC[C@@H](Nc2cc3[nH]c(-c4cccnc4)cc3cn2)CC1 [Example 228, N-((1s,4s)-4-methoxycyclohexyl)-2-(pyridin-3-yl)-1H-pyrrolo[3,2-c]pyridin-6-amine] | 33 to 66% | 33 to 66% |  | 
6 | COc1nccc(-c2cc3cnc(NC(=O)c4cnn([C@H]5CC[C@H](O)CC5)c4)cc3[nH]2)n1 [Example 219, 1-((1r,4r)-4-hydroxycyclohexyl)-N-(2-(2-methoxypyrimidin-4-yl)-1H-pyrrolo[3,2-c]pyridin-6-yl)-1H-pyrazole-4-carboxamide] | 0 to 33% | 33 to 66% |  | 
7 | COc1nccc(-c2cc3cnc(NC4CCOCC4)cc3[nH]2)n1 [Example 62, 2-(2-methoxypyrimidin-4-yl)-N-(tetrahydro-2H-pyran-4-yl)-1H-pyrrolo[3,2-c]pyridin-6-amine] |  |  | > 1 µM | 
8 | Cc1cc(-c2cc3cnc(NC4CCNCC4)cc3n2C)ncn1 [Example 120, 1-methyl-2-(6-methylpyrimidin-4-yl)-N-(piperidin-4-yl)-1H-pyrrolo[3,2-c]pyridin-6-amine] |  |  | > 1 µM | 
9 | Cn1c(-c2ccnc(C(F)(F)F)n2)cc2cnc(NC(=O)C3CC3)cc21 [Example 302, N-(1-methyl-2-(2-(trifluoromethyl)pyrimidin-4-yl)-1H-pyrrolo[3,2-c]pyridin-6-yl)cyclopropanecarboxamide] | 0 to 33% | 0 to 33% |  | 
10 | Cc1cc(-c2cc3cnc(NC(=O)C(C)O)cc3[nH]2)ccn1 (stereo in doubt) [Example 263, (R)-2-hydroxy-N-(2-(2-methylpyridin-4-yl)-1H-pyrrolo[3,2-c]pyridin-6-yl)propanamide] | 0 to 33% | 0 to 33% |  | 
11 | c1nc(NC2CCOCC2)cc2[nH]c(C3CCC3)cc12 [Example 121, 2-cyclobutyl-N-(tetrahydro-2H-pyran-4-yl)-1H-pyrrolo[3,2-c]pyridin-6-amine] |  |  | > 1 µM | 
12 | COc1nccc(-c2cc3cnc(NC(=O)c4cnn(CC5CCOC5)c4)cc3[nH]2)n1 (stereo in doubt) [Example 156, (S)-N-(2-(2-methoxypyrimidin-4-yl)-1H-pyrrolo[3,2-c]pyridin-6-yl)-1-((tetrahydrofuran-3-yl)methyl)-1H-pyrazole-4-carboxamide] |  |  |  | inhibition at 1 µM (single point inhibition @ 1 uM): 0 to 33%; inhibition at 10 µM [3]: 67 to 100%
13 | CC(C)COc1nccc(-c2cc3cnc(NC(=O)c4cnn(C)c4)cc3[nH]2)n1 [Example 311, N-(2-(2-isobutoxypyrimidin-4-yl)-1H-pyrrolo[3,2-c]pyridin-6-yl)-1-methyl-1H-pyrazole-4-carboxamide] | 0 to 33% | 0 to 33% |  | 
14 | Cn1cc(-c2cc3cnc(Nc4ccc(C(F)(F)F)cc4)cc3[nH]2)cn1 [Example 222] |  | 33 to 66% |  | 
15 | CCOc1nccc(-c2cc3cnc(NC4CCOCC4)cc3[nH]2)n1 [Example 377, 2-(2-ethoxypyrimidin-4-yl)-N-(tetrahydro-2H-pyran-4-yl)-1H-pyrrolo[3,2-c]pyridin-6-amine] |  |  | > 1 µM | 
16 | O=C(Nc1cc2[nH]c(-c3ccncc3)cc2cn1)c1ccccc1 [Example 277, N-(2-(pyridin-4-yl)-1H-pyrrolo[3,2-c]pyridin-6-yl)benzamide] | 0 to 33% | 0 to 33% |  | 
17 | CCOc1nccc(-c2cc3cnc(NC(=O)c4cnn(CCO)c4C)cc3[nH]2)n1 [Example 230, N-(2-(2-ethoxypyrimidin-4-yl)-1H-pyrrolo[3,2-c]pyridin-6-yl)-1-(2-hydroxyethyl)-5-methyl-1H_ pyrazole-4-carboxamide] | 0 to 33% | 33 to 66% |  | 

Row | SMILES | inhibition at 1 µM [1] | inhibition at 10 µM [2] | EC50 | also measured
18 | c1nc(NC2CCOCC2)cc2[nH]c(C3CCCCC3)cc12 [Example 26, 2-Cyclohexyl-N-(tetrahydro-2H-pyran-4-yl)-1H-pyrrolo[3,2-c]pyridin-6-amine] |  |  | > 1 µM | 
19 | CN(CC(F)(F)F)c1cc(-c2cc3cnc(NC4CCOCC4)cc3[nH]2)ncn1 [Example 44, 2-(6-(Methyl(2,2,2-trifluoroethyl)amino)pyrimidin-4-yl)-N-(tetrahydro-2H-pyran-4-yl)-1H-pyrrolo[3,2-c]pyridin-6-amine] |  |  |  | inhibition at 1 µM (single point inhibition @ 1 uM): 0 to 33%; inhibition at 10 µM [3]: 67 to 100%
20 | Cn1cc(C(=O)Nc2cc3c(cn2)cc(-c2ccnc(NCCC(F)(F)F)n2)n3C)cn1 [Example 133, 1-methyl-N-(1-methyl-2-(2-(3,3,3-trifluoropropylamino)pyrimidin-4-yl)-1H-pyrrolo[3,2-c]pyridin-6-yl)-1H-pyrazole-4-carboxamide] |  |  |  | inhibition at 1 µM (single point inhibition @ 1 uM): 0 to 33%; inhibition at 10 µM [3]: 67 to 100%
21 | Cc1cccc(-c2cc3cnc(NC4CCOCC4)cc3[nH]2)c1 [Example 352, N-(tetrahydro-2H-pyran-4-yl)-2-m-tolyl-1H-pyrrolo[3,2-c]pyridin-6-amine] |  |  | > 1 µM | 
22 | Cc1cc(-c2cc3cnc(NC(=O)C(C)C)cc3[nH]2)ccn1 [Example 160, N-(2-(2-methylpyridin-4-yl)-1H-pyrrolo[3,2-c]pyridin-6-yl)isobutyramide] |  |  |  | inhibition at 1 µM (single point inhibition @ 1 uM): 0 to 33%; inhibition at 10 µM [3]: 67 to 100%
23 | O=C(Nc1cc2[nH]c(-c3cnc[nH]3)cc2cn1)C1CC1 [Example 330, N-(2-(1H-imidazol-5-yl)-1H-pyrrolo[3,2-c]pyridin-6-yl)cyclopropanecarboxamide] | 0 to 33% | 0 to 33% |  | 
24 | Cn1c(-c2ccncc2)cc2cnc(Nc3cnn(C4CCOCC4)c3)cc21 [Example 138, 1-methyl-2-(pyridin-4-yl)-N-(1-(tetrahydro-2H-pyran-4-yl)-1H-pyrazol-4-yl)-1H-pyrrolo[3,2-c]pyridin-6-amine] |  |  |  | inhibition at 1 µM (single point inhibition @ 1 uM): 0 to 33%; inhibition at 10 µM [3]: 67 to 100%
25 | COC(=O)Nc1cc2[nH]c(C(F)(F)F)cc2cn1 [Example 107, methyl 2-(trifluoromethyl)-1H-pyrrolo[3,2-c]pyridin-6-ylcarbamate] |  |  | > 1 µM | 
26 | Cn1cc(-c2cc3cnc(NC4CCOCC4)cc3[nH]2)cn1 [Example 354, 2-(1-methyl-1H-pyrazol-4-yl)-N-(tetrahydro-2H-pyran-4-yl)-1H-pyrrolo[3,2-c]pyridin-6-amine] |  |  | > 1 µM | 
27 | Cc1cc(-c2cc3cnc(NC(=O)C4CC4)cc3n2C(C)C)ccn1 [Example 329, N-(1-isopropyl-2-(2-methylpyridin-4-yl)-1H-pyrrolo[3,2-c]pyridin-6-yl)cyclopropanecarboxamide] | 0 to 33% | 0 to 33% |  | 
28 | Cn1cc(C(=O)Nc2cc3[nH]c(-c4cc(C(F)(F)F)ccn4)cc3cn2)cn1 [Example 299, 1-methyl-N-(2-(4-(trifluoromethyl)pyridin-2-yl)-1H-pyrrolo[3,2-c]pyridin-6-yl)-1H-pyrazole-4-carboxamide] | 0 to 33% | 0 to 33% |  | 
29 | Cc1cc(-c2[nH]c3cc(NC4CCOCC4)ncc3c2C(F)(F)F)ccn1 [Example 375, 2-(2-methylpyridin-4-yl)-N-(tetrahydro-2H-pyran-4-yl)-3-(trifluoromethyl)-1H-pyrrolo[3,2-c]pyridin-6-amine] |  |  | > 1 µM | 
30 | Cc1cc(-c2cc3cnc(NC4CCN(C)CC4)cc3n2C)ncn1 [Example 117, 1-methyl-N-(1-methylpiperidin-4-yl)-2-(6-methylpyrimidin-4-yl)-1H-pyrrolo[3,2-c]pyridin-6-amine] |  |  | > 1 µM | 
31 | O=C(CC1COC1)Nc1cc2[nH]c(-c3ccnc(C(F)(F)F)n3)cc2cn1 [Example 91, 2-(oxetan-3-yl)-N-(2-(2-(trifluoromethyl)pyrimidin-4-yl)-1H-pyrrolo[3,2-c]pyridin-6-yl)acetamide] |  |  | > 1 µM | inhibition at 1 µM (single point inhibition @ 1 uM): 0 to 33%; inhibition at 10 µM [3]: 0 to 33%
32 | COc1cc(-c2cc3cnc(NC(=O)c4cnn(C)c4)cc3[nH]2)ccn1 [Example 286, N-(2-(2-methoxypyridin-4-yl)-1H-pyrrolo[3,2-c]pyridin-6-yl)-1-methyl-1H-pyrazole-4-carboxamide] | 0 to 33% | 0 to 33% |  | 
33 | O=C(Nc1cc2[nH]c(-c3ccnc(OCCC(F)(F)F)n3)cc2cn1)c1cnn([C@H]2CC[C@H](O)CC2)c1 [Example 216, 1-((1r,4r)-4-hydroxycyclohexyl)-N-(2-(2-(3,3,3-trifluoropropoxy)pyrimidin-4-yl)-1H-pyrrolo[3,2-c]pyridin-6-yl)-1H-pyrazole-4-carboxamide] | 0 to 33% | 67 to 100% |  | 
34 | CC(C)n1cc(C(=O)Nc2cc3[nH]c(-c4ccnc(OCC(F)F)n4)cc3cn2)cn1 [Example 173, N-(2-(2-(2,2-difluoroethoxy)pyrimidin-4-yl)-1H-pyrrolo[3,2-c]pyridin-6-yl)-1-isopropyl-1H-pyrazole-4-carboxamide] |  |  |  | inhibition at 1 µM (single point inhibition @ 1 uM): 0 to 33%; inhibition at 10 µM [3]: 67 to 100%
